# Laboratory results taken from patent US20100267561A1, “HERBICIDAL PYRIDAZINONE DERIVATIVES” (priority 2007, published 2010).
# Key:
# Assay in all cases: Test B pre-/postemergence plant response
# Type in all cases: in vivo
# [1] = tested on: morningglory (Ipomoea coccinea); details: for Morningglory plant response rating: 8 g ai/ha
# Procedure, shortened: (§1)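 Preemergence and postemergence (plants 2-18 cm, 1- to 4-leaf stage) applications used test chemicals in a non-phytotoxic solvent with surfactant. Plants were held in a greenhouse 13 to 15 days, then rated visually against controls on a 0-100 scale (0 no effect, 100 complete control).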
# [2] = tested on: blackgrass (Alopecurus myosuroides)
# Procedure, shortened: as §1
# [3] = tested on: surinam grass (Brachiaria decumbens); details: for Surinam Grass plant response rating: 8 g ai/ha
# Procedure, shortened: as §1
# [4] = tested on: lambsquarters (Chenopodium album); details: for Lambsquarters plant response rating: 8 g ai/ha
# Procedure, shortened: as §1
# [5] = tested on: yellow nutsedge (Cyperus esculentus); details: for Nutsedge, Yellow plant response rating: 8 g ai/ha
# Procedure, shortened: as §1
# [6] = tested on: bermudagrass (Cynodon dactylon); details: for Bermudagrass plant response rating: 8 g ai/ha
# Procedure, shortened: as §1
# kochia (Kochia scoparia) = details: for Kochia plant response rating: 8 g ai/ha
# Procedure, shortened: as §1
# corn (Zea mays) = details: for Corn plant response rating: 8 g ai/ha
# Procedure, shortened: as §1
# wild oat (Avena fatua) = details: for Oat, Wild plant response rating: 8 g ai/ha
# Procedure, shortened: as §1
# [7] = tested on: eastern black (E.B.) nightshade (Solanum ptycanthum); details: Preemergence
# Procedure, shortened: as §1
# [8] = tested on: Italian ryegrass (Lolium multiflorum); details: for Ryegrass, Italian plant response rating: 8 g ai/ha
# Procedure, shortened: as §1
# [9] = tested on: common ragweed (Ambrosia elation); details: for Ragweed plant response rating: 8 g ai/ha
# Procedure, shortened: as §1
# [10] = tested on: johnsongrass (Sorghum halepense); details: for Johnsongrass plant response rating: 8 g ai/ha
# Procedure, shortened: as §1
# [11] = tested on: giant foxtail (Setaria faberii); details: for Foxtail, Giant plant response rating: 8 g ai/ha
# Procedure, shortened: as §1
# [12] = Postemergence, 16 g ai/ha, scale 0 to 100
# [13] = Postemergence, 31 g ai/ha, scale 0 to 100, 0 no effect, 100 complete control
# [14] = Postemergence, 62 g ai/ha, scale 0 to 100, 0 no effect, 100 complete control
# [15] = Preemergence, 16 g ai/ha, scale 0 to 100 (0 no effect, 100 complete control)
# [16] = Preemergence, 31 g ai/ha, 0 to 100 scale, 0 no effect, 100 complete control
# [17] = Preemergence, 62 g ai/ha, scale 0 to 100
smiles,measurement,setting,value
Cc1cc(-c2ccc(Cl)cc2)nn1-c1c(OC(=O)c2cccc(Cl)c2)cnn(C)c1=O [Compound 32],Morningglory plant response rating,"[1]; postemergence, 0-100 scale",0
same,"Plant response rating, Morningglory",[1]; [12],0
same,"Plant response rating, Morningglory",[1]; [13],0
same,"Plant response rating, Morningglory",[1]; [14],0
same,"Plant response rating, Morningglory",[1]; [15],0
same,"Plant response rating, Morningglory",[1]; [16],0
same,"Plant response rating, Morningglory",[1]; [17],0
same,Morningglory plant response rating,"[1]; Preemergence, scale 0 to 100",0
same,Blackgrass plant response rating,"[2]; 8 g ai/ha, postemergence, 0-100 scale",30
same,"Plant response rating, Blackgrass",[2]; [12],35
same,"Plant response rating, Blackgrass",[2]; [13],70
same,"Plant response rating, Blackgrass",[2]; [14],70
same,"Plant response rating, Blackgrass",[2]; [15],85
same,"Plant response rating, Blackgrass",[2]; [16],95
same,"Plant response rating, Blackgrass",[2]; [17],98
same,Surinam Grass plant response rating,"[3]; postemergence, 0-100 scale",65
same,"Plant response rating, Surinam Grass",[3]; [12],70
same,"Plant response rating, Surinam Grass",[3]; [14],98
same,"Plant response rating, Surinam Grass",[3]; [15],75
same,"Plant response rating, Surinam Grass",[3]; [16],100
same,"Plant response rating, Surinam Grass",[3]; [17],100
same,Surinam Grass plant response rating,"[3]; Preemergence, scale 0 to 100",70
same,Lambsquarters plant response rating,"[4]; postemergence, 0-100 scale",0
same,"Plant response rating, Lambsquarters",[4]; [12],0
same,"Plant response rating, Lambsquarters",[4]; [13],0
same,"Plant response rating, Lambsquarters",[4]; [14],0
same,"Plant response rating, Lambsquarters",[4]; [15],0
same,"Plant response rating, Lambsquarters",[4]; [16],0
same,"Plant response rating, Lambsquarters",[4]; [17],0
same,Lambsquarters plant response rating,"[4]; Preemergence, scale 0 to 100",0
same,"Nutsedge, Yellow plant response rating","[5]; postemergence, 0-100 scale",0
same,"Plant response rating, Nutsedge, Yellow",[5]; [12],0
same,"Plant response rating, Nutsedge, Yellow",[5]; [13],0
same,"Plant response rating, Nutsedge, Yellow",[5]; [14],0
same,"Plant response rating, Nutsedge, Yellow",[5]; [15],0
same,"Plant response rating, Nutsedge, Yellow",[5]; [16],0
same,"Plant response rating, Nutsedge, Yellow",[5]; [17],0
same,"Nutsedge, Yellow plant response rating","[5]; Preemergence, scale 0 to 100",0
same,Bermudagrass plant response rating,"[6]; postemergence, 0-100 scale",60
same,"Plant response rating, Bermudagrass",[6]; [12],65
same,"Plant response rating, Bermudagrass",[6]; [13],100
same,"Plant response rating, Bermudagrass",[6]; [14],100
same,Bermudagrass plant response rating,"[6]; Preemergence, scale 0 to 100 (0 no effect, 100 complete control)",0
same,"Plant response rating, Bermudagrass",[6]; [15],0
same,"Plant response rating, Bermudagrass",[6]; [16],0
same,"Plant response rating, Bermudagrass",[6]; [17],0
same,Kochia plant response rating,"kochia (Kochia scoparia); postemergence, 0-100 scale",0
same,"Plant response rating, Kochia",kochia (Kochia scoparia); [12],0
same,"Plant response rating, Kochia",kochia (Kochia scoparia); [13],0
same,"Plant response rating, Kochia",kochia (Kochia scoparia); [14],0
same,"Plant response rating, Kochia",kochia (Kochia scoparia); [15],0
same,"Plant response rating, Kochia",kochia (Kochia scoparia); [16],0
same,"Plant response rating, Kochia",kochia (Kochia scoparia); [17],0
same,Kochia plant response rating,"kochia (Kochia scoparia); Preemergence, scale 0 to 100",0
same,Corn plant response rating,"corn (Zea mays); postemergence, 0-100 scale",0
same,"Plant response rating, Corn",corn (Zea mays); [12],0
same,"Plant response rating, Corn",corn (Zea mays); [13],0
same,"Plant response rating, Corn",corn (Zea mays); [14],0
same,"Plant response rating, Corn",corn (Zea mays); [15],45
same,"Plant response rating, Corn",corn (Zea mays); [16],60
same,"Plant response rating, Corn",corn (Zea mays); [17],95
same,Corn plant response rating,"corn (Zea mays); Preemergence, scale 0 to 100",0
same,"Oat, Wild plant response rating","wild oat (Avena fatua); postemergence, 0-100 scale",60
same,"Plant response rating, Oat, Wild",wild oat (Avena fatua); [12],85
same,"Plant response rating, Oat, Wild",wild oat (Avena fatua); [13],95
same,"Plant response rating, Oat, Wild",wild oat (Avena fatua); [14],95
same,"Plant response rating, Oat, Wild",wild oat (Avena fatua); [15],0
same,"Plant response rating, Oat, Wild",wild oat (Avena fatua); [16],60
same,"Plant response rating, Oat, Wild",wild oat (Avena fatua); [17],80
same,"Oat, Wild plant response rating","wild oat (Avena fatua); Preemergence, scale 0 to 100",0
same,"Plant response rating, Nightshade, E. B.","[7]; 16 g ai/ha, scale 0 to 100 (0 no effect, 100 complete control)",0
same,"Plant response rating, Nightshade, E. B.","[7]; 31 g ai/ha, 0 to 100 scale, 0 no effect, 100 complete control",0
same,"Plant response rating, Nightshade, E. B.","[7]; 62 g ai/ha, scale 0 to 100",0
same,"Nightshade, E. B. plant response rating","[7]; 8 g ai/ha, scale 0 to 100",0
same,"Ryegrass, Italian plant response rating","[8]; postemergence, 0-100 scale",5
same,"Plant response rating, Ryegrass, Italian",[8]; [12],85
same,"Plant response rating, Ryegrass, Italian",[8]; [13],95
same,"Plant response rating, Ryegrass, Italian",[8]; [14],95
same,"Plant response rating, Ryegrass, Italian",[8]; [15],100
same,"Plant response rating, Ryegrass, Italian",[8]; [16],100
same,"Plant response rating, Ryegrass, Italian",[8]; [17],100
same,"Ryegrass, Italian plant response rating","[8]; Preemergence, scale 0 to 100",90
same,Ragweed plant response rating,"[9]; postemergence, 0-100 scale",0
same,"Plant response rating, Ragweed",[9]; [12],0
same,"Plant response rating, Ragweed",[9]; [13],0
same,"Plant response rating, Ragweed",[9]; [14],0
same,"Plant response rating, Ragweed",[9]; [15],0
same,"Plant response rating, Ragweed",[9]; [16],0
same,"Plant response rating, Ragweed",[9]; [17],0
same,Ragweed plant response rating,"[9]; Preemergence, scale 0 to 100",0
same,Johnsongrass plant response rating,"[10]; postemergence, 0-100 scale",50
same,"Plant response rating, Johnsongrass",[10]; [12],70
same,"Plant response rating, Johnsongrass",[10]; [13],98
same,"Plant response rating, Johnsongrass",[10]; [14],98
same,"Plant response rating, Johnsongrass",[10]; [15],75
same,"Plant response rating, Johnsongrass",[10]; [16],85
same,"Plant response rating, Johnsongrass",[10]; [17],90
same,Johnsongrass plant response rating,"[10]; Preemergence, scale 0 to 100",65
same,"Foxtail, Giant plant response rating","[11]; postemergence, 0-100 scale",75
same,"Plant response rating, Foxtail, Giant",[11]; [12],80
same,"Plant response rating, Foxtail, Giant",[11]; [13],98
same,"Plant response rating, Foxtail, Giant",[11]; [14],100
same,"Plant response rating, Foxtail, Giant",[11]; [15],95
same,"Plant response rating, Foxtail, Giant",[11]; [16],100
same,"Plant response rating, Foxtail, Giant",[11]; [17],100
same,"Foxtail, Giant plant response rating","[11]; Preemergence, scale 0 to 100",85
